By IC50 is commonly meant the concentration needed to halve the response being measured. A word on the MBC: it is the lowest tested concentration that kills the bacteria rather than only halting them. Low values mean greater bactericidal potency, high ones weaker bactericidal potency.

Molecules are shown by their SMILES. Values after ≈ are worked out from the molar mass of the structure shown. Values joined by “and” are separate entries in the source; they are usually repeats but may differ in a detail not shown here. Equal entries are not always repeated.

Assay [1] has as its target T1, BSA (Bos taurus, UniProt P02769). Description: BSA UV-vis absorption titration (Benesi-Hildebrand binding constant). Details: species or system bovine. As for the experimental part: Interactions between the most common blood protein, serum albumin, and complexes have sparked a lot of interest recently because of their structural similarity to human serum albumin. To better understand the mechanism of interaction between BPA and its nickel(II) complex NiBPA with BSA, fluorescence quenching studies were carried out. BSA’s fluorescence is due to intrinsic protein characteristics, such as the presence of tryptophan and tyrosine residues. Variations in the emission spectra caused by protein conformational changes, subunit interaction, substrate binding, or denaturation are largely attributed to the tryptophan residue. As a result, BSA fluorescence behavior can provide valuable insight into protein structure, dynamics, and folding. Fluorescence titration experiments were performed at room temperature with BSA and different concentrations of BPA and NiBPA in the range 200–600 nm (λex. 280 nm). A slight red shift (40 percent, BPA; 65 percent, NiBPA; Figure 3) reduced the intensity of BSA fluorescence at 343 nm. The presence of the protein’s active site in a hydrophobic environment causes the redshift. […] The quenching mechanism can be set to either static or dynamic operation. […] The binding constants for BPA and NiBPA were calculated using Equation (1) and found to be 0.4 × 10^4 M^−1 and 0.82 × 10^4 M^−1, respectively (Table 1). […]

In assay [2] the target is T1, BSA. Description: BSA fluorescence quenching titration (Stern-Volmer / Scatchard). As to conditions: for Kbin: BSA binding constant from Scatchard equation; for n (number of binding sites): Scatchard plot log (I0 − I)/I vs. log [Q]; for KSV: Stern-Volmer constant; for Kq: quenching constant, Kq = Ksv/τ0, τ0 = 10 ns. It is filed as binding, bovine. As for the experimental part: The excitation and emission wavelengths of BSA at 280 nm were monitored in protein binding studies using BSA ([…]) solution prepared in Tris-HCl buffer (pH 7.5), and the solution was stored in a dark place at 4 °C.
Interactions between the most common blood protein, serum albumin, and complexes have sparked a lot of interest recently because of their structural similarity to human serum albumin. To better understand the mechanism of interaction between BPA and its nickel(II) complex NiBPA with BSA, fluorescence quenching studies were carried out. BSA’s fluorescence is due to intrinsic protein characteristics, such as the presence of tryptophan and tyrosine residues. Variations in the emission spectra caused by protein conformational changes, subunit interaction, substrate binding, or denaturation are largely attributed to the tryptophan residue. As a result, BSA fluorescence behavior can provide valuable insight into protein structure, dynamics, and folding. Fluorescence titration experiments were performed at room temperature with BSA and different concentrations of BPA and NiBPA in the range 200–600 nm (λex. 280 nm). A slight red shift (40 percent, BPA; 65 percent, NiBPA; Figure 3) reduced the intensity of BSA fluorescence at 343 nm. The presence of the protein’s active site in a hydrophobic environment causes the redshift. […] The quenching mechanism can be set to either static or dynamic operation. Dynamic quenching occurs when the fluorophore and the quencher come into contact during the excited state’s transient existence, whereas static quenching is caused by the formation of a complex between the quencher and the fluorophore in the ground state. BSA (fluorophore) has a UV-vis absorption spectrum that can be used to investigate the type of quenching quickly and easily. […] The binding constants for BPA and NiBPA were calculated using Equation (1) and found to be 0.4 × 10^4 M^−1 and 0.82 × 10^4 M^−1, respectively (Table 1). […] Furthermore, the findings are in line with previous research on related compounds.
The Kq value is much higher than the 2 × 10^10 M^−1s^−1 maximum scatters collision quenching constant of quenchers with BSA (Kq = Ksv/τ0), where KSV is the Stern–Volmer constant and τ0 is the average lifetime of the BSA in the absence of the quencher (τ0 = 10 ns). This supports the idea of a static quenching mechanism. […] It is second order in [Q] and thus leads to upward curvy plots of I0/I versus [Q] at higher [Q].
The quenching constant (Kq) was calculated using the Stern–Volmer and Scatchard equation and plotted as I0/I vs. [Q] to better understand the quenching process (Figure 3). In addition, Scatchard Equation (2) was used to calculate the equilibrium binding constant:log[(I0 − I)/I] = log Kbin + n log [Q](2) where Kbin is the compound’s BSA binding constant and n is the number of binding sites. From the log (I0 − I)/I vs. log [Q] plot (Figure 5), the binding constant (Kbin) and the number of binding sites (n) have been calculated (Table 1). The estimated value of n (∼1) for BPA and NiBPA strongly supported the existence of a single binding site in BSA.

The test system of assay [3] is human liver cancer (HepG2) cell lines. Description: MTT cytotoxicity assay, liver cancer cells. The class given is cell-based. (Tetrazolium assays rely on reduction of a dye to a coloured formazan, in cell work by metabolically active cells.)
Description: Methyl thiazolyl tetrazolium (MTT) colorimetry [47] was used to assess the cytotoxicity of BPA and one for human liver cancer (HepG2) cell lines. MTT can be converted into formazan by living cells with an active metabolism, but this ability is lost in dying cells. Therefore, in this study, the MTT assay was used to determine how many viable cells there were. Before the investigated compounds were added, cells were cultured in 96-well flat-bottomed microtiter plates at a density of 1 × 10^4 cells/well (100 l/well) for 70 to 80 percent confluent cultures, and the cultures were then incubated at 37 °C and 5 percent CO2 for 24 h. The compounds were used in a range of concentrations (31.2, 62.5, 125.0, 250.0, 500.0, and 1000.0 g/mL), and the cells were cultured for 24 h. Then, 10 µl of the 12 mM MTT stock solution (5 mg/mL MTT in sterile PBS) was added to each well at the conclusion of the incubation period. After that, the plate was incubated at 37 °C for 4 h. […] On an ELISA reader, the absorbance at 570 nm was read (StatFax-2100, Awareness Technology, Inc., USA). The percentage of cells inhibited was calculated using: % CellInhibition=100−T−T0/C−T0 where T is the optical density of the test sample, To is the optical density at time zero, and C is the optical density of the control.
The subject of the next assay is ct-DNA. Description: Stopped-flow kinetics of ct-DNA binding. As to conditions: for Ka1 (k1/k−1) / Kd: 1st step; for Ka1 (k1/k−1) / Kd / K2 (2nd step) / Ka2 (k2/k−2) / k−2 / k1 (1st step, second-order association constant) / k−1 (1st step, first-order dissociation constant): 25 °C; for Kd: read-out: Kd1 (k−1/k1); for K2 (2nd step) / Ka2 (k2/k−2) / k−2: 2nd step. As for the experimental part:
The kinetics of protein and DNA binding was measured using an Applied KinetAsyst SF-61DX2 stopped-flow instrument. At 25 °C, equal volumes of compounds against protein and DNA solutions were rapidly mixed in the stopped-flow instrument. The binding reactions were studied using a 10-fold excess of the ligand BPA and NiBPA under pseudo-first-order conditions. For each experimental condition, all recorded rate constants were taken into account, from which the mean values of at least three independent kinetic runs were calculated.
Because many medicines with lower cellular toxicity have a slow DNA dissociation rate, several factors, such as the strength of binding and the drug’s affinity for DNA, as well as the kinetic stability of DNA-drug adducts, may contribute to antitumor effectiveness. The stopped-flow technique was used to study in-vitro protein/DNA binding to BPA and propose a mechanism in order to obtain such information. The kinetic traces were recorded at 265 nm within 100 s (BPA) and 5 s (NiBPA), respectively, to capture the interaction process with BSA. […] In the case of ct-DNA interaction, the kinetic traces were recorded at 290 nm, and both BPA and NiBPA followed a similar pattern since kinetic traces for BPA and NiBPA were collected within 100 s, covering the entire interaction process. […] Over the concentration range of BPA and NiBPA, the study of kinetic traces performed under pseudo-first-order conditions may be fitted to two kinetic phases (Figure 7) evaluated using the following Equation (3):(3) A=a1e^−kobs1t1+a2e^−kobs2t2+A0
The interaction process involves at least two steps, and the stopped-flow records the two kinetic phases as a fast binding (rate constant kobs1) followed by a slow first-order isomerization process (rate constant kobs2). […] Both kon and koff were used to calculate the equilibrium association constants Kaff [kon/koff M^−1] and the equilibrium dissociation constants Kd [koff/kon M]. […]

The subject of the next assay is E. coli. Put plainly: Antibacterial MIC/MBC, E. coli. It is filed as cell-based. As to conditions: Gram-negative. As for the experimental part: (§1) Several studies have shown that organic compound coordination with a metallic element results in significant changes in the biological activity of both the organic ligand and the metal. As a result, BPA and its nickel complex NiBPA were tested in vitro for antibacterial activity against Gram-positive (S. aureus and S epidermidis) and Gram-negative (P. mirabilis and E. coli) bacteria. Figure 10 depicts the antibacterial function of BPA and NiBPA as the diameter of the growth-inhibition region in millimeters. […] The MBC is identified by determining the lowest concentration of antibacterial agents that reduces the viability of the initial bacterial inoculum by 99.9%. The MIC or MBC strain was chosen based on the value agreed upon on two or more occasions. The antibiotic tobramycin (TOB) was used to control the situation. The inhibition zone, as well as the MIC and MBC data, leads to the following conclusions. […] This is explained by the metal ion’s polarity and cationic charge, as NiBPA has a cationic property with two positive charges. […] The interaction between Gram-negative bacteria and NiBPA was stronger than that of Gram-positive bacteria due to the higher negative charge on the cell surface, despite the presence of an outer membrane in Gram-negative bacteria (see Figure 11).

Another assay concerns S. aureus. Description: Antibacterial MIC/MBC, S. aureus. As to conditions: Gram-positive. The class given is cell-based. As for the experimental part:
as §1

[4] abbreviates: BSA fluorescence, λex 280 nm, room temperature.

Take `c1ccc(CNCc2ccccn2)nc1` [BPA, bis(2-picolyl)amine]: the Kd at BSA [1] is 0.25 mM. Further, at BSA [2], the Kbin is 0.25 10^4 M^−1, the “n (number of binding sites)” value was 1.0, the KSV turned out to be 2100 M⁻¹ and the Kq is listed as 0.21 10^12 M^−1s^−1. In addition, at BSA [2] (setting [4]), the KSV is 0.21 10^4 M^−1. Moreover, at BSA [2] (λex 280 nm, room temperature), the “reduction of BSA fluorescence intensity at 343 nm” value came to 40%. The compound further had an IC50 in assay [3] (Homo sapiens, HepG2, 24 h) of 100 ± 1 µg/mL (≈ 502 µM). For the same compound, in the assay on ct-DNA, the “Ka1 (k1/k−1)” value was 40.0 M⁻¹ and 40 M⁻¹; the Kd was 25.6 mM; the “K2 (2nd step)” value came to 0.29 ± 0.01 M⁻¹ s⁻¹; the “Ka2 (k2/k−2)” value turned out to be 47.5 M⁻¹. In the assay on ct-DNA, the “k−2” value was 6.1 ± 0.3 10^−3s^−1; the “k1 (1st step, second-order association constant)” value was 27.0 ± 2.5 M⁻¹ s⁻¹; the “k−1 (1st step, first-order dissociation constant)” value was 0.69 ± 0.1 s⁻¹; the “Ka (overall binding)” value is 1899 M⁻¹. Also, the MBC with E. coli came to 0 µg/mL. For the same compound, in the assay on S. aureus, the MBC was determined as 0 µg/mL.

With `O.[Cl][Ni][Cl].c1ccc(CNCc2ccccn2)nc1` [NiBPA, [(BPA)NiCl2(H2O)]], the “binding constant (BSA)” value on BSA [1] (BSA UV absorption) amounted to 8200 M⁻¹. On BSA [2], the Kbin is 0.90 10^4 M^−1, the “n (number of binding sites)” value was determined as 1.3, the KSV is 7000 M⁻¹ and the Kq is 0.70 10^12 M^−1s^−1. Further, on BSA [2] (setting [4]), the KSV is 0.70 10^4 M^−1. Moreover, the “reduction of BSA fluorescence intensity at 343 nm” value at BSA [2] (λex 280 nm, room temperature) is 65%. Further, the IC50 in assay [3] (HepG2, MTT, 24 h) worked out at 75.0 ± 0.5 µg/mL. Besides, in the assay on ct-DNA, the “Ka1 (k1/k−1)” value is 53.6 M⁻¹; the Kd amounted to 19 mM; the “K2 (2nd step)” value came out at 0.23 ± 0.01 M⁻¹ s⁻¹; the “Ka2 (k2/k−2)” value was 39 M⁻¹ and 39.0 M⁻¹. In the assay on ct-DNA, the “k−2” value is reported as 5.9 ± 0.5 10^−3s^−1; the “k1 (1st step, second-order association constant)” value was determined as 19.3 ± 2.3 M⁻¹ s⁻¹; the “k−1 (1st step, first-order dissociation constant)” value was determined as 0.36 ± 0.1 s⁻¹; the “Ka (overall binding)” value was found to be 2077 M⁻¹. The same compound registered a minimal bactericidal concentration (MBC) against E. coli of 63.0 µg/mL. In the assay on S. aureus, this compound came in with an MBC of 76.0 µg/mL.

The values above are taken from paper PMC9680484, “Synthesis, Biophysical Interaction of DNA/BSA, Equilibrium and Stopped-Flow Kinetic Studies, and Biological Evaluation of bis(2-Picolyl)amine-Based Nickel(II) Complex” (Biomimetics, 2022).
